Assay results as given in patent publication US9193990B2, “Bioluminescent metal ion assay” (priority 2013, dated 2015).

Key:
[1] = tested on: firefly luciferase-holoCA fusion protein
Source text: The free zinc concentration can be related to the amount of orange emission, or preferably to the levels of luciferase emission and ultimate acceptor emission, or their ratio, which is proportional to zinc concentration.

apoNanoLuc-CA = test: bioluminescence emission of NanoLuc-CA with fluorescent sulfonamide and competing sulfonamide (FIG. 4); assay type: binding, human; conditions: 19 nM free Zn, after addition of competing nonfluorescent sulfonamide
Source text: In another preferred embodiment the luciferase gene fused to the human carbonic anhydrase II gene is from a variant of the luciferase isolated from the deep sea shrimp Oplophorus gracilirostris (offered commercially by Promega as Nanoluc), and the luciferin is a coelenterazine derivative called furimazine (“Engineered Luciferase Reporter from a Deep Sea Shrimp Utilizing a Novel Imidazopyrazinone Substrate” by Mary P. Hall †, James Unch ‡, Brock F. Binkowski †, Michael P. Valley †, Braeden L. Butler †, Monika G. Wood †, Paul Otto †, Kristopher Zimmerman †, Gediminas Vidugiris †, Thomas Machleidt †, Matthew B. Robers †, Hélène A. Benink †, Christopher T. Eggers †, Michael R. Slater †, Poncho L. Meisenheimer ‡, Dieter H. Klaubert ‡, Frank Fan †, Lance P. Encell *†, and Keith V. Wood † ACS Chem. Biol., 2012, 7 (11), pp 1848-1857DOI: 10.1021/cb3002478). […] An important advantage of this ratiometric approach is that it is essentially independent of time-dependent changes in bioluminescence emission, which are frequently observed. […]

[2] = molecular target: wild type human carbonic anhydrase II (Homo sapiens, UniProt P00918); conditions: free zinc ion, read-out: KD for binding to carbonic anhydrase; cited from earlier work

Compound: CC(=O)Nc1nnc(S(N)(=O)=O)s1 [acetazolamide]
- displacement of LISSAMINE rhodamine sulfonamide from holoCA sulfonamide binding site [1]: completely displaced

Compound: fluorescein thioureidyl ethyl phenyl sulfonamide [fluorescein sulfonamide]
- specificity of sulfonamide binding (apoNanoLuc-CA): specific

Compound: zinc ion
- Kd [2]: ~4 pM
